Assay results reported in US10947252B2, “Inhibitors of KEAP1-Nrf2 protein-protein interaction” (Janssen Pharmaceutica NV, priority 2018, dated 2021).

Assays:
[1] = target: Kelch domain of human KEAP1 (321-624 aa) (Homo sapiens (Human), UniProt Q14145); experiment: KEAP1 KELCH ThermoFluor binding assay; details: KEAP Kelch […], 1,8-ANS, pH 7.0, average of results obtained, read-out: Tf Kd;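 note: Ligand-induced melting temperature shift of E. coli-expressed KEAP1 Kelch protein, Kd estimated from concentration-response curves of ΔTm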
[2] = system: Glo-Response ARE-luc2P HEK293 cell line; experiment: ARE luciferase reporter cell-based assay; details: average of results obtained;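 note: luciferase signal tracks Nrf2 activation of the ARE once compounds disrupt KEAP1-Nrf2 binding, read with One-Glo reagent, DMSO serving as low control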

Kelch domain of human KEAP1 (321-624 aa), sequence (Q14145 321-624): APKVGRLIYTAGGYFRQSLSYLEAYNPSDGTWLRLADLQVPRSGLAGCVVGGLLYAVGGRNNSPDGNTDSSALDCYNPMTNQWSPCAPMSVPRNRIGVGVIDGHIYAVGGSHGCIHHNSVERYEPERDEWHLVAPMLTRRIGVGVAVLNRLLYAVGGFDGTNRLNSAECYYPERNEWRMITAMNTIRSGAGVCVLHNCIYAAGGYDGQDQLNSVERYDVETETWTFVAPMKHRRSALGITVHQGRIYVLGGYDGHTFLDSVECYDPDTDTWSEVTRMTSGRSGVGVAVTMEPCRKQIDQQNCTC

Structure (SMILES) | Kd [1] | EC50 ([2]; Homo sapiens, HEK293, 24 h) | EC50 ([2]; 24 hours)
Cc1ccc([C@H](CC(=O)O)c2ccn3c(C(F)(F)F)nnc3c2C)cc1CN1CC(C)(C)Oc2ccccc2S1(=O)=O (single isomer, unassigned) [Example 285, (*S)-3-(3-((4,4-Dimethyl-1,1-dioxido-3,4-dihydro-2H-benzo[b][1,4,5]oxathiazepin-2-yl)methyl)-4-methylphenyl)-3-(8-methyl-3-(trifluoromethyl)-[1,2,4]triazolo[4,3-a]pyridin-7-yl)propanoic Acid] | 1.1 nM | 129 nM | –
CCn1nnc2c(C)c([C@@H](CC(=O)O)c3ccc(C)c(CN4C[C@@H]5CCCN5c5ncccc5S4(=O)=O)c3)ccc21 (single isomer, unassigned) [Example 156, (*S)-3-(3-(((S)-5,5-Dioxido-7a,8,9,10-tetrahydropyrido[2,3-f]pyrrolo[2,1-d][1,2,5]thiadiazepin-6(7H)-yl)methyl)-4-methylphenyl)-3-(1-ethyl-4-methyl-1H-benzo[d][1,2,3]triazol-5-yl)propanoic Acid] | 2.1 nM | 3.6 nM | –
Cc1ccc([C@H](CC(=O)O)c2ccn3c(C(F)(F)F)nnc3c2C)nc1CN1CC2(COC2)Oc2ccccc2S1(=O)=O (single isomer, unassigned) [Example 486, (*R)-3-(6-((1,1-dioxidospiro[benzo[b][1,4,5]oxathiazepine-4,3′-oxetan]-2(3H)-yl)methyl)-5-methylpyridin-2-yl)-3-(8-methyl-3-(trifluoromethyl)-[1,2,4]triazolo[4,3-a]pyridin-7-yl)propanoic Acid] | 1.83 nM | 333 nM | –
Cc1ccc([C@H](c2ccn3c(C(F)(F)F)nnc3c2C)C(C)(C)C(=O)O)cc1CN1CC2(CNC2)Oc2ncccc2S1(=O)=O (single isomer, unassigned) [Example 339, (*R)-3-(3-((1′,1′-Dioxidospiro[azetidine-3,4′-pyrido[2,3-b][1,4,5]oxathiazepin]-2′(3′H)-yl)methyl)-4-methylphenyl)-2,2-dimethyl-3-(8-methyl-3-(trifluoromethyl)-[1,2,4]triazolo[4,3-a]pyridin-7-yl)propanoic Acid] | 80200 nM | 6320 nM | –
Cc1ccc(C(CC(=O)O)c2ccn3c(C(F)(F)F)nnc3c2C)cc1CN1CC2(COC2)Oc2ccccc2S1(=O)=O (stereo not drawn) [Example 287, 3-(3-((1,1-Dioxidospiro[benzo[b][1,4,5]oxathiazepine-4,3′-oxetan]-2(3H)-yl)methyl)-4-methylphenyl)-3-(8-methyl-3-(trifluoromethyl)-[1,2,4]triazolo[4,3-a]pyridin-7-yl)propanoic Acid] | < 1 nM | 28.1 nM | –
Cc1cnc2c(c1)S(=O)(=O)N(Cc1nc([C@H](c3ccn4c(C(F)F)nnc4c3C)C(C)(C)C(=O)O)ccc1C)CC1(COC1)O2 (single isomer, unassigned) [Example 626, (*R)-3-(3-(Difluoromethyl)-8-methyl-[1,2,4]triazolo[4,3-a]pyridin-7-yl)-2,2-dimethyl-3-(5-methyl-6-((8′-methyl-1′,1′-dioxidospiro[oxetane-3,4′-pyrido[2,3-b][1,4,5]oxathiazepin]-2′(3′H)-yl)methyl)pyridin-2-yl)propanoic Acid] | 2980 nM | 229 nM | –
Cc1ccc([C@H](c2ccn3c(C(F)(F)F)nnc3c2C)C(C)(C)C(=O)O)cc1CN1CC2(CCOCC2)Oc2ncccc2S1(=O)=O (single isomer, unassigned) [Example 410, (*R)-3-(3-((1′,1′-dioxido-2,3,5,6-tetrahydrospiro[pyran-4,4′-pyrido[2,3-b][1,4,5]oxathiazepin]-2′(3′H)-yl)methyl)-4-methylphenyl)-2,2-dimethyl-3-(8-methyl-3-(trifluoromethyl)-[1,2,4]triazolo[4,3-a]pyridin-7-yl)propanoic Acid] | 2400 nM | 1220 nM | –
CCn1nnc2c(C)c([C@@H](c3cnc(C)c(CN4CC5(CCOCC5)Oc5ncc(C)cc5S4(=O)=O)c3)C(C)(C)C(=O)O)ccc21 (single isomer, unassigned) [Example 62, (*S)-3-(1-Ethyl-4-methyl-1H-benzo[d][1,2,3]triazol-5-yl)-2,2-dimethyl-3-(6-methyl-5-((8′-methyl-1′,1′-dioxido-2,3,5,6-tetrahydrospiro[pyran-4,4′-pyrido[2,3-b][1,4,5]oxathiazepin]-2′(3′H)-yl)methyl)pyridin-3-yl)propanoic Acid] | < 1 nM | 19.2 nM | –
Cc1ccc([C@H](CC(=O)O)c2ccc3c(nnn3C)c2C(F)F)cc1CN1CC2CCCN2c2ncccc2S1(=O)=O (single isomer, unassigned) [Example 73, (*R) 3-(4-(Difluoromethyl-1-methyl-1H-benzo[d][1,2,3]triazol-5-yl)-3-(3-(((R-5,5-dioxido-7a,8,9,10-tetrahydropyridi[2,3-f]pyrrolo[2,1-d][1,2,5]thiadiazepin-6(7H)-yl)methyl)-4-methylphenyl)propanoic Acid] | 3 nM | – | 600 nM
Cc1cnc2c(c1)S(=O)(=O)N(Cc1cc([C@@H](CC(=O)O)c3ccn4c(C(F)(F)F)nnc4c3C)ccc1C#N)CC1(CC1)O2 (single isomer, unassigned) [Example 106, (*R)-3-(4-Cyano-3-((8′-methyl-1′,1′-dioxidospiro[cyclopropane-1,4′-pyrido[2,3-b][1,4,5]oxathiazepin]-2′(3′H)-yl)methyl)phenyl)-3-(8-methyl-3-(trifluoromethyl)-[1,2,4]trizolo[4,3-a]pyridine-7-yl)propanoic Acid] | 21 nM | > 20000 nM | –
Cc1ccc([C@H](CC(=O)O)c2ccn3c(C(F)(F)F)nnc3c2C)cc1CN1C[C@H]2CCCN2c2ncc(C#N)cc2S1(=O)=O (single isomer, unassigned) [Example 207, (*S)-3-(3-(((R)-3-Cyano-5,5-dioxido-7a,8,9,10-tetrahydropyrido[2,3-f]pyrrolo[2,1-d][1,2,5]thiadiazepin-6(7H)-yl)methyl)-4-methylphenyl)-3-(8-methyl-3-(trifluoromethyl)-[1,2,4]triazolo[4,3-a]pyridin-7-yl)propanoic Acid] | < 1 nM | 11 nM | –
Cc1cnc2c(c1)S(=O)(=O)N(Cc1cc(C(CC(=O)O)c3ccn4c(C(F)F)nnc4c3C)ccc1C)C[C@@H]1CCCCN21 (stereo in doubt) [Example 499, 3-(3-(Difluoromethyl)-8-methyl-[1,2,4]triazolo[4,3-a]pyridin-7-yl)-3-(4-methyl-3-(((*S)-3-methyl-5,5-dioxido-7,7a,8,9,10,11-hexahydro-6H-dipyrido[2,1-d:2′,3′-f][1,2,5]thiadiazepin-6-yl)methyl)phenyl)propanoic Acid] | < 1 nM | 12.8 nM | –
Cc1c(C(CC(=O)O)c2ccc(Cl)c(CN3CC4(COC4)Oc4ncccc4S3(=O)=O)c2)ccn2c(C(F)(F)F)nnc12 (stereo not drawn) [Example 86, 3-(4-Chloro-3-((1′,1′-dioxoidospiro[oxetane-3,4′-pyrido[2,3-b][1,4,5]oxathiazepin]-2′(3′H)-yl)methyl)phenyl)-3-(8-methyl-3-(trifluoromethyl)-[1,2,4]triazolo[4,3-a]pyridine-7-yl)propanoic Acid] | 2.4 nM | 6240 nM | –
Cc1ccc(C(CC(=O)O)c2ccn3c(C(F)F)nnc3c2C)cc1CN1CC2(CCOCC2)Oc2ncc(F)cc2S1(=O)=O (stereo not drawn) [Example 532, 3-(3-(Difluoromethyl)-8-methyl-[1,2,4]triazolo[4,3-a]pyridin-7-yl)-3-(3-((8′-fluoro-1′,1′-dioxido-2,3,5,6-tetrahydrospiro[pyran-4,4′-pyrido[2,3-b][1,4,5]oxathiazepin]-2′(3′H)-yl)methyl)-4-methylphenyl)propanoic Acid] | < 1 nM | 41.7 nM | –
Cc1ccc([C@H](c2ccn3c(C(F)(F)F)nnc3c2C)[C@H](C)C(=O)O)cc1CN1CC2(CC2)Oc2ncccc2S1(=O)=O (single isomer, unassigned) [Example 554, (2S,3*R)-3-(3-(Trifluoromethyl)-8-methyl-[1,2,4]triazolo[4,3-a]pyridin-7-yl)-3-(3-((1′,1′-dioxidospiro[cyclopropane-1,4′-pyrido[2,3-b][1,4,5]oxathiazepin]-2′(3′H)-yl)methyl)-4-methylphenyl)-2-methylpropanoic Acid] | < 1 nM | 181 nM | –
Cc1c([C@@H](CC(=O)O)c2ccc(Cl)c(CN3CC4CCCCN4c4ncc(F)cc4S3(=O)=O)c2)ccn2c(C(F)(F)F)nnc12 (single isomer, unassigned) [Example 94, (*S)-3-(4-Chloro-3-(((*S)-3-fluoro-5,5-dioxido-7,7a,8,9,10,11-hexahydro-6H-dipyrido[2,1-d:2′,3′-f][1,2,5]thiadiazepin-6-yl)methyl)phenyl)-3-(8-methyl-3-(trifluoromethyl)-[1,2,4]triazolo[4,3-a]pyridine-7-yl)propanoic Acid] | < 1 nM | 54.2 nM | –
Cc1ccc(C(CC(=O)O)c2ccc3c(nnn3CC3CC3)c2C)cc1CN1CC2(CC2)N(C)c2ncccc2S1(=O)=O (stereo not drawn) [Example 75, 3-(1-(Cyclopropylmethyl)-4-methyl-1H-benzo[d][1,2,3]triazol-5-yl)-3-(4-methyl-3-((5′-methyl-1′,1′-dioxido-5′H-spiro[cyclopropane-1,4′-pyrido[2,3-f][1,2,5]thiadiazepin]-2′(3′H)-yl)methyl)phenyl)propanoic Acid] | < 1 nM | 14 nM | –
Cc1cnc([C@@H](c2ccn3c(C(F)(F)F)nnc3c2C)C(C)(C)C(=O)O)cc1CN1CC2(CCOCC2)Oc2ncccc2S1(=O)=O (single isomer, unassigned) [Example 56, (*S)-3-(4-((1′,1′-Dioxido-2,3,5,6-tetrahydrospiro[pyran-4,4′-pyrido[2,3-b][1,4,5]oxathiazepin]-2′(3′H)-yl)methyl)-5-methylpyridin-2-yl)-2,2-dimethyl-3-(8-methyl-3-(trifluoromethyl)-[1,2,4]triazolo[4,3-a]pyridin-7-yl)propanoic Acid] | < 1 nM | 48 nM | –
